Test results: patent US9611275B2 (priority 2012, dated 2017)
Where two headings read alike, the source gives them in different places.

Experiments:
human O-GlcNAcase = human O-GlcNAcase (Homo sapiens (Human), UniProt O60502); assay: biochemical; assay type: biochemical; conditions: read-out: OGA KI
LLC-PK1 cells = assay: Assay for determination of apparent permeability (Papp), bi-directional transport; conditions: comparative compounds described in PCT/US11/059668; LLC-PK1 cells
[1] = as above; conditions: pig, LLC-PK1
[2] = molecular target: O-GlcNAcase in rat PC-12 cells (Rattus norvegicus (Rat), UniProt Q8VIJ5); assay: cell-based; conditions: rat PC-12 cells, 24 hours treatment, increase in O-GlcNAcylated protein; read-out: Cell based ELISA EC50
Chain of O-GlcNAcase in rat PC-12 cells (Q8VIJ5 whole entry): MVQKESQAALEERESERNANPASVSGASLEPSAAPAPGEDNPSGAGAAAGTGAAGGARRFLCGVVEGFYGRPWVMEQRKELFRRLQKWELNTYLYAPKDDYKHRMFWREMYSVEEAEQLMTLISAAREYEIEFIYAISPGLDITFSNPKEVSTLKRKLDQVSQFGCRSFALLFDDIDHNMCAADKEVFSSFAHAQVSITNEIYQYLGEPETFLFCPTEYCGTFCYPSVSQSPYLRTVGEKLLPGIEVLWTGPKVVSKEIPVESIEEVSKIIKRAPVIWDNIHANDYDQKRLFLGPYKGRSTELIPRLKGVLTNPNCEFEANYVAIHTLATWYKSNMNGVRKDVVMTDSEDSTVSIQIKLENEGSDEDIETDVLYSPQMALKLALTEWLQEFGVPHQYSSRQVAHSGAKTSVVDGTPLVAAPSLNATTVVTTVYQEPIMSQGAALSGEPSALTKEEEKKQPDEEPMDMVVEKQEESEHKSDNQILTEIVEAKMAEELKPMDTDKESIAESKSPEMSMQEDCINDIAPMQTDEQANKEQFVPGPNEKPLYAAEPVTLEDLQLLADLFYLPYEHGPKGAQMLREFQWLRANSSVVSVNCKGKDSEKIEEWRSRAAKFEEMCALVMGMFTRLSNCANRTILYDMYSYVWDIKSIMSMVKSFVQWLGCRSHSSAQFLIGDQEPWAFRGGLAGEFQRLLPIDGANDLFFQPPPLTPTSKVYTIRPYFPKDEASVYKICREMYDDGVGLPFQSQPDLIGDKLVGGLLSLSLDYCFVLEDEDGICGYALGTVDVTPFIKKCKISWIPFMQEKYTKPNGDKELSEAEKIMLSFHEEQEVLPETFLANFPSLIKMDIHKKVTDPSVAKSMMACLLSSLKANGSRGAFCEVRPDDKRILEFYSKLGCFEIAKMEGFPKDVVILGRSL
Text: Assay for Determination of Cellular Activity for Compounds that Inhibit O-GlcNAcase Activity
Inhibition of O-GlcNAcase, which removes O-GlcNAc from cellular proteins, results in an increase in the level of O-GlcNAcylated protein in cells. An increase in O-GlcNAcylated protein can be measured by an antibody, such as RL-2, that binds to O-GlcNAcylated protein. The amount of O-GlcNAcylated protein:RL2 antibody interaction can be measured by enzyme linked immunosorbant assay (ELISA) procedures.
A variety of tissue culture cell lines, expressing endogenous levels of O-GlcNAcase, can be utilized; examples include rat PC-12, and human U-87, or SK-N-SH cells. In this assay, rat PC-12 cells were plated in 96-well plates with approximately 10,000 cells/well. Compounds to be tested were dissolved in DMSO, either 2 or 10 mM stock solution, and then diluted with DMSO and water in a two-step process using a Tecan workstation. […] To prepare a cell lysate, the media from compound treated cells was removed, the cells were washed once with phosphate buffered saline (PBS) and then lysed for 5 minutes at room temperature in 50 μL of Phosphosafe reagent (Novagen Inc, Madison, Wis.) with protease inhibitors and PMSF. The cell lysate was collected and transferred to a new plate, which was then either coated to assay plates directly or frozen −80° C. until used in the ELISA procedure. If desired, the total protein concentration of samples is determined using 20 μL of the sample using the BCA method.
The plate was sealed and incubated at 37° C. for 2 hr with gentle shaking. The wells were then washed 3-times with 300 μl/well wash buffer. […] The plate was incubated for 60 min at 37° C. with gentle shaking. Each well was then washed 3-times with 300 μl/well wash buffer. The detection reagent was added, 100 μL/well of Amplex Ultra RED reagent (prepared by adding 30 μL of 10 mM Amplex Ultra Red stock solution to 10 ml PBS with 18 μL 3% hydrogen peroxide, H2O2). The detection reaction was incubated for 15 minutes at room temperature and then read with excitation at 530 nm and emission at 590 nm.

[3] = comparative compounds described in PCT/US11/059668
[4] = purified human O-GlcNAcase 0.7 nM, pH 7.0, room temperature, Cheng-Prusoff

Chain of human O-GlcNAcase (O60502 whole entry): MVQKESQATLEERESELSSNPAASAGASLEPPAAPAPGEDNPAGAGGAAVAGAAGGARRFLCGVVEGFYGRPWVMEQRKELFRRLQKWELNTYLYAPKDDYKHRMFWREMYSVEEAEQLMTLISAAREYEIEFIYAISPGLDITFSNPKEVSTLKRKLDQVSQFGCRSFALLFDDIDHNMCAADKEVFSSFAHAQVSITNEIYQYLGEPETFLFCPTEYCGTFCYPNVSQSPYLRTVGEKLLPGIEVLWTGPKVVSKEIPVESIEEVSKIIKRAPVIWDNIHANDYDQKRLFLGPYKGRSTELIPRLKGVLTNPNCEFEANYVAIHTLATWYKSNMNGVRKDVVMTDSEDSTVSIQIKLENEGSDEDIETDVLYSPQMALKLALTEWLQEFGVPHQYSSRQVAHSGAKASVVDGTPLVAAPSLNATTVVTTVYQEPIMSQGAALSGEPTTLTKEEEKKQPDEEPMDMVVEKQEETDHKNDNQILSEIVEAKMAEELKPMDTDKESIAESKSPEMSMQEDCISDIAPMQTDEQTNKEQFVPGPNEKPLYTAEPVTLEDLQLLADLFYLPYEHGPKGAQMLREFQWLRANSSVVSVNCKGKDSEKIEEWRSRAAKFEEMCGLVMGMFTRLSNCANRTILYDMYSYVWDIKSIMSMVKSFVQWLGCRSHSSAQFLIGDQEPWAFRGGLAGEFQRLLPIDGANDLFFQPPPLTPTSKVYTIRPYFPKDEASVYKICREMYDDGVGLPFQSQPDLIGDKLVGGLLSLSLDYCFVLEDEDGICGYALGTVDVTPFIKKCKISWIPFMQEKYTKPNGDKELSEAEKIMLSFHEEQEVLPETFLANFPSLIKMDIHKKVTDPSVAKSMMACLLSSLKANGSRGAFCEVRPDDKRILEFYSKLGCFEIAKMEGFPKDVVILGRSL

In the case of `CNC1=N[C@@H]2[C@@H](O)[C@H](O)[C@@H]([C@H](C)OC)O[C@@H]2S1` [Example 111, (3aR,5S,6S,7R,7aR)-5-((S)-1-methoxyethyl)-2-(methylamino)-5,6,7,7a-tetrahydro-3aH-pyrano[3,2-d]thiazole-6,7-diol], the Ki (human O-GlcNAcase; [3]) is reported as 4.26 nM and the “Papp (X10-6 cm/sec)” value (LLC-PK1 cells) is reported as 2.7 X10-6 cm/sec.

For `CO[C@@H](C)[C@H]1O[C@@H]2SC(N(C)C)=N[C@@H]2[C@@H](O)[C@@H]1O` [Example 11, (3aR,5S,6S,7R,7aR)-2-(dimethylamino)-5-((S)-1-methoxyethyl)-5,6,7,7a-tetrahydro-3aH-pyrano[3,2-d]thiazole-6,7-diol], the “Papp (X10-6 cm/sec)” value (LLC-PK1 cells) was 1.6 X10-6 cm/sec.

In the case of `CN(C)C1=N[C@@H]2[C@@H](O)[C@H](O)[C@@H]([C@H](OCc3ccccc3F)C(F)(F)F)O[C@@H]2S1` [Example 62, (3aR,5S,6S,7R,7aR)-2-(dimethylamino)-5-((S)-2,2,2-trifluoro-1-(2-fluorobenzyloxy)ethyl)-5,6,7,7a-tetrahydro-3aH-pyrano[3,2-d]thiazole-6,7-diol], the Ki (human O-GlcNAcase) is reported as 0.96 nM, the Papp at 3 h, 1 μM [1] is reported as 31.1 ×10⁻⁶ cm/s and the “Papp (X10-6 cm/sec)” value (LLC-PK1 cells) is reported as 1.7 X10-6 cm/sec.

With `CNC1=N[C@@H]2[C@@H](O)[C@H](O)[C@@H]([C@@H](OCc3ccc(Cc4ccccc4)cc3)C(F)(F)F)O[C@@H]2S1` [Example 95, (3aR,5S,6S,7R,7aR)-5-((R)-1-(4-benzylbenzyloxy)-2,2,2-trifluoroethyl)-2-(methylamino)-5,6,7,7a-tetrahydro-3aH-pyrano[3,2-d]thiazole-6,7-diol] the Ki (human O-GlcNAcase; [3]) was 0.16 nM and the “Papp (X10-6 cm/sec)” value (LLC-PK1 cells) was <1.0 X10-6 cm/sec.

For `CN(C)C1=N[C@@H]2[C@@H](O)[C@H](O)[C@@H]([C@@H](OCc3cccnc3)C(F)(F)F)O[C@@H]2S1` [Example 42, (3aR,5S,6S,7R,7aR)-2-(dimethylamino)-5-((R)-2,2,2-trifluoro-1-(pyridin-3-ylmethoxy)ethyl)-5,6,7,7a-tetrahydro-3aH-pyrano[3,2-d]thiazole-6,7-diol], the Ki (human O-GlcNAcase; [4]) was 2.36 nM, the EC50 [2] was 120 nM and the Papp at 3 h, 1 μM [1] was 15.2 ×10⁻⁶ cm/s.

Compound `CNC1=N[C@@H]2[C@@H](O)[C@H](O)[C@@H]([C@@H](OCc3ccc(F)cc3)C(F)(F)F)O[C@@H]2S1` [Example 89, (3aR,5S,6S,7R,7aR)-2-(methylamino)-5-((R)-2,2,2-trifluoro-1-(4-fluorobenzyloxy)ethyl)-5,6,7,7a-tetrahydro-3aH-pyrano[3,2-d]thiazole-6,7-diol] has a Ki (human O-GlcNAcase; [4]) of 1.44 nM, an EC50 [2] of 57.4 nM and a Papp at 3 h, 1 μM [1] of 25.4 ×10⁻⁶ cm/s.
